According to patent publication US20080045537A1, “Chemical Compounds” (priority 2004, published 2008):

tested on: HIV-1 IIIB (T-tropic, CXCR4 utilizing); assay: HOS HIV-1 infectivity assay; format: cell-based; settings: Human immunodeficiency virus 1, IIIB, read-out: Activity Level
Experimental: Compounds were profiled against two HIV-1 viruses, the M-tropic (CCR5 utilizing) Ba-L strain and the T-tropic (CXCR4 utilizing) IIIB strain. Both viruses were propagated in human peripheral blood lymphocytes. Compounds were tested for there ability to block infection of the HOS cell line (expressing hCXCR4/hCCR5/hCD4/pHIV-LTR-luciferase) by either HIV-1 Ba-L or HIV-1 IIIB. Compound cytotoxicity was also examined in the absence of virus addition.
HOS cells (expressing hCXCR4/hCCR5/hCD4/pHIV-LTR-luciferase) were harvested and diluted in Dulbeccos modified Eagles media supplemented with 2% FCS and non-essential amino acid to a concentration of 60,000 cells/ml. The cells were plated into 96-well plates (100 ul per well) and the plates were placed in a tissue culture incubator (37° C.; 5% CO2/95% air) for a period of 24 h.
Subsequently, 50 ul of the desired drug solution (4 times the final concentration) was added to each well and the plates were returned to the tissue culture incubator (37° C.; 5% CO2/95% air) for 1 h. Following this incubation 50 ul of diluted virus was added to each well (approximately 2 million RLU per well of virus). The plates were returned to the tissue culture incubator (37° C.; 5% CO2/95% air) and were incubated for a further 96 h.
Following this incubation the endpoint for the virally infected cultures was quantified following addition of Steady-Glo Luciferase assay system reagent (Promega, Madison, Wis.). Cell viability or non-infected cultures was measured using a CellTiter-Glo luminescent cell viability assay system (Promega, Madison, Wis.). All luminescent readouts are performed on a Topcount luminescence detector (Packard, Meridien, Conn.).

Compound | IC50 [nM]
CN(Cc1nc2c(C(=O)N3C[C@@H]4C[C@H]3CN4)cccc2[nH]1)C1CCCc2cccnc21 (stereo partly drawn) [Example 92, N-({4-[(1S,4S)-2,5-diazabicyclo[2.2.1]hept-2-ylcarbonyl]-1H-benzimidazol-2-yl}methyl)-N-methyl-5,6,7,8-tetrahydro-8-quinolinamine] | < 100

same assay, conditions: Human immunodeficiency virus 1, IIIB; as determined by the infectivity assay; strain not stated in Table 2; read-out: Activity Level

Compound | IC50 [nM]
CN(Cc1nc2c(C(=O)NCc3nc4ccccc4[nH]3)cccc2[nH]1)C1CCCc2cccnc21 (stereo not drawn) [Example 75, N-(1H-Benzimidazol-2-ylmethyl)-2-{[methyl(5,6,7,8-tetrahydro-8-quinolinyl)amino]methyl}-1H-benzimidazole-4-carboxamide] | < 100
CN(Cc1nc2c(C(=O)NCCc3ccccn3)cccc2[nH]1)C1CCCc2cccnc21 (stereo not drawn) [Example 76, 2-{[Methyl(5,6,7,8-tetrahydro-8-quinolinyl)amino]methyl}-N-[2-(2-pyridinyl)ethyl]-1H-benzimidazole-4-carboxamide] | 100 to 500
CN(Cc1nc2c(C(=O)NC3CCNCC3)cccc2[nH]1)C1CCCc2cccnc21 (stereo not drawn) [Example 77, 2-{[Methyl(5,6,7,8-tetrahydro-8-quinolinyl)amino]methyl}-N-4-piperidinyl-1H-benzimidazole-4-carboxamide] | 100 to 500
CN(Cc1nc2c(C(=O)NC3CCNC3)cccc2[nH]1)C1CCCc2cccnc21 (stereo not drawn) [Example 78, 2-{[Methyl(5,6,7,8-tetrahydro-8-quinolinyl)amino]methyl}-N-3-pyrrolidinyl-1H-benzimidazole-4-carboxamide] | < 100
CN(Cc1nc2c(C(=O)NCCCn3ccnc3)cccc2[nH]1)C1CCCc2cccnc21 (stereo not drawn) [Example 79, N-[3-(1H-Imidazol-1-yl)propyl]-2-{[methyl(5,6,7,8-tetrahydro-8-quinolinyl)amino]methyl}-1H-benzimidazole-4-carboxamide] | < 100
CN(C)CC(C)(C)CNC(=O)c1cccc2[nH]c(CN(C)C3CCCc4cccnc43)nc12 (stereo not drawn) [Example 80, N-[3-(Dimethylamino)-2,2-dimethylpropyl]-2-{[methyl(5,6,7,8-tetrahydro-8-quinolinyl)amino]methyl}-1H-benzimidazole-4-carboxamide] | 100 to 500
CN(Cc1nc2c(C(=O)NCCc3c[nH]c4ccccc34)cccc2[nH]1)C1CCCc2cccnc21 (stereo not drawn) [Example 81, N-[2-(1H-Indol-3-yl)ethyl]-2-{[methyl(5,6,7,8-tetrahydro-8-quinolinyl)amino]methyl}-1H-benzimidazole-4-carboxamide] | 500 to 10000
CN(Cc1nc2c(C(=O)N3CCC(N)CC3)cccc2[nH]1)C1CCCc2cccnc21 (stereo not drawn) [Example 82, N-({4-[(4-Amino-1-piperidinyl)carbonyl]-1H-benzimidazol-2-yl}methyl)-N-methyl-5,6,7,8-tetrahydro-8-quinolinamine] | < 100
CN(Cc1nc2c(C(=O)N3CCC(N)C3)cccc2[nH]1)C1CCCc2cccnc21 (stereo not drawn) [Example 83, N-({4-[(3-amino-1-pyrrolidinyl)carbonyl]-1H-benzimidazol-2-yl}methyl)-N-methyl-5,6,7,8-tetrahydro-8-quinolinamine] | < 100
CC(=O)N1CCN(C(=O)c2cccc3[nH]c(CN(C)C4CCCc5cccnc54)nc23)CC1 (stereo not drawn) [Example 84, N-({4-[(4-Acetyl-1-piperazinyl)carbonyl]-1H-benzimidazol-2-yl}methyl)-N-methyl-5,6,7,8-tetrahydro-8-quinolinamine] | 100 to 500
CCS(=O)(=O)N1CCN(C(=O)c2cccc3[nH]c(CN(C)C4CCCc5cccnc54)nc23)CC1 (stereo not drawn) [Example 85, N-[(4-{[4-(Ethylsulfonyl)-1-piperazinyl]carbonyl}-1H-benzimidazol-2-yl)methyl]-N-methyl-5,6,7,8-tetrahydro-8-quinolinamine] | 100 to 500
CN1CCCN(C(=O)c2cccc3[nH]c(CN(C)C4CCCc5cccnc54)nc23)CC1 (stereo not drawn) [Example 86, N-Methyl-N-({4-[(4-methylhexahydro-1H-1,4-diazepin-1-yl)carbonyl]-1H-benzimidazol-2-yl}methyl)-5,6,7,8-tetrahydro-8-quinolinamine] | < 100
CC(C)N1CCN(C(=O)c2cccc3[nH]c(CN(C)C4CCCc5cccnc54)nc23)CC1 (stereo not drawn) [Example 87, N-Methyl-N-[(4-{[4-(1-methylethyl)-1-piperazinyl]carbonyl}-1H-benzimidazol-2-yl)methyl]-5,6,7,8-tetrahydro-8-quinolinamine] | 100 to 500
CN1CCC(NC(=O)c2cccc3[nH]c(CN(C)C4CCCc5cccnc54)nc23)CC1 (stereo not drawn) [Example 88, N-(1-methyl-4-piperidinyl)-2-{[methyl(5,6,7,8-tetrahydro-8-quinolinyl)amino]methyl}-1H-benzimidazole-4-carboxamide] | 100 to 500
CN(C)C1CCN(C(=O)c2cccc3[nH]c(CN(C)C4CCCc5cccnc54)nc23)C1 (stereo not drawn) [Example 89, N-[(4-{[3-(Dimethylamino)-1-pyrrolidinyl]carbonyl}-1H-benzimidazol-2-yl)methyl]-N-methyl-5,6,7,8-tetrahydro-8-quinolinamine] | 100 to 500
CN(CCc1c[nH]cn1)C(=O)c1cccc2[nH]c(CN(C)C3CCCc4cccnc43)nc12 (stereo not drawn) [Example 90, N-[2-(1H-imidazol-4-yl)ethyl]-N-methyl-2-{[methyl(5,6,7,8-tetrahydro-8-quinolinyl)amino]methyl}-1H-benzimidazole-4-carboxamide] | < 100
CC1CNCCN1C(=O)c1cccc2[nH]c(CN(C)C3CCCc4cccnc43)nc12 (stereo not drawn) [Example 91, N-methyl-N-({4-[(2-methyl-1-piperazinyl)carbonyl]-1H-benzimidazol-2-yl}methyl)-5,6,7,8-tetrahydro-8-quinolinamine] | < 100
CN(Cc1nc2c(C(=O)N3CCCNCC3)cccc2[nH]1)C1CCCc2cccnc21 (stereo not drawn) [Example 93, N-{[4-(hexahydro-1H-1,4-diazepin-1-ylcarbonyl)-1H-benzimidazol-2-yl]methyl}-N-methyl-5,6,7,8-tetrahydro-8-quinolinamine] | < 100
CN(C)CCCc1cccc2[nH]c(CN(C)C3CCCc4cccnc43)nc12 (stereo not drawn) [Example 94, N-({4-[3-(Dimethylamino)propyl]-1H-benzimidazol-2-yl}methyl)-N-methyl-5,6,7,8-tetrahydro-8-quinolinamine] | < 100
CN(Cc1nc2c(CCCN3CCCC3)cccc2[nH]1)C1CCCc2cccnc21 (stereo not drawn) [Example 95, N-Methyl-N-({4-[3-(1-pyrrolidinyl)propyl]-1H-benzimidazol-2-yl}methyl)-5,6,7,8-tetrahydro-8-quinolinamine] | < 100
CN(Cc1nc2c(CCCN3CCCCC3)cccc2[nH]1)C1CCCc2cccnc21 (stereo not drawn) [Example 96, N-methyl-N-({4-[3-(1-piperidinyl)propyl]-1H-benzimidazol-2-yl}methyl)-5,6,7,8-tetrahydro-8-quinolinamine] | < 100
CN(Cc1nc2c(CCCN)cccc2[nH]1)C1CCCc2cccnc21 (stereo not drawn) [Example 97, N-{[4-(3-aminopropyl)-1H-benzimidazol-2-yl]methyl}-N-methyl-5,6,7,8-tetrahydro-8-quinolinamine] | < 100
CN(Cc1nc2c(NC(=O)CN)cccc2[nH]1)C1CCCc2cccnc21 (stereo not drawn) [Example 99, N^1-(2-{[methyl(5,6,7,8-tetrahydro-8-quinolinyl)amino]methyl}-1H-benzimidazol-4-yl)glycinamide] | 100 to 500
